Assay results from patent publication US9422338B2 (EpoDose LLC, priority 2011, dated 2016).
pIC50, pKi: −log10 of the molar value. Blank lines part the entries; values can stand above or below the compound they belong to. Where a SMILES comes first, the peptide text is derived from it. Bridges are numbered along the chain shown (N, C = ends). Roman numbers before positions name the chains, in order. [ ]: non-standard residue; d: D form. ξ: configuration not given here. 1Nal = N[C@@H](Cc1cccc2ccccc12)C(=O)O; ξK = NCCCCC(N)C(=O)O; Ava = NCCCCC(=O)O

Biological target: T1, EPOR (erythropoietin receptor), human recombinant, NSO cells (Homo sapiens, UniProt P19235)
T1 construct: host or cells: NSO cells
T1 sequence (P19235 25-250 limits assumed): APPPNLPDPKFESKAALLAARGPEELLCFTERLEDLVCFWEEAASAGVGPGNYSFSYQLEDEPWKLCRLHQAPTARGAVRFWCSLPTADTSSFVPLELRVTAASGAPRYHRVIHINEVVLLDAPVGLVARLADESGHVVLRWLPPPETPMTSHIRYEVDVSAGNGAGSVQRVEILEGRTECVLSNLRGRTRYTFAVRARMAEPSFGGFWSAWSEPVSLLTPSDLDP
Assay: EPOR radioligand binding assay ([125I] Erythropoietin competition)
Details: for Ki (AC-0005-002)/Ki: Ki relative to that of AC-0005-002
Experimental: IC50 values were determined by a non-linear, least squares regression analysis using MATHIQ™ (computer software for integrating mathematical functions into new or existing software). […] Where presented, the Hill coefficient (nH), defining the slope of the competitive binding curve, was calculated using MATHIQ™.

[1] = Example 1, mimetics varied in N-end, loop and mid sequences
[2] = Example 2, mimetics varied in loop, mid and C-end

Compound: I: Ac-GGLYACHMGPIT[1Nal]VCQPQGG[ξK]-NH2 / II: Ac-GGNYLCHMGPIT[1Nal]VCQPQGG[Ava] (disulfide I:6-I:15, II:6-II:15; amide I:21-II:C) [AC-0005-002]
Ki (AC-0005-002)/Ki (Example 4, first table): 1

Compound: CSCC[C@@H]1NC(=O)[C@H](CCCNC(=N)N)NC(=O)C(NC(=O)[C@H](CC(C)C)NC(=O)[C@H](Cc2ccc(O)cc2)NC(=O)[C@H](CC(N)=O)NC(C)=O)CCOCC(C(=O)N[C@@H](CCCCNC(=N)N)C(=O)N2CCC[C@H]2C(=O)NCCCCC(=O)NCCCCC(NC(=O)[C@@H]2CCCN2C(=O)[C@H](CCCCNC(=N)N)NC(=O)C2COCCC(NC(=O)[C@H](CC(C)C)NC(=O)[C@H](Cc3ccc(O)cc3)NC(=O)[C@H](CC(N)=O)NC(C)=O)C(=O)N[C@@H](CCCNC(=N)N)C(=O)N[C@@H](CCSC)C(=O)NCC(=O)N[C@@H](Cc3c[nH]c4ccccc34)C(=O)N[C@@H](C(C)C)C(=O)N2)C(N)=O)NC(=O)[C@H](C(C)C)NC(=O)[C@H](Cc2c[nH]c3ccccc23)NC(=O)CNC1=O (some centres unmarked) [AC-0005-021]
pKi [1]: 7.92 | pIC50 (Example 4, fourth table): 7.60

Compound: CC[C@H](C)[C@@H]1NC(=O)[C@@H]2CCCN2C(=O)CNC(=O)[C@H](CCSC)NC(=O)[C@H](Cc2c[nH]cn2)NC(=O)C(NC(=O)[C@H](C)NC(=O)[C@H](Cc2ccc(O)cc2)NC(=O)[C@H](CC(C)C)NC(C)=O)CCOCC(C(=O)N[C@@H](CCC(N)=O)C(=O)N2CCC[C@H]2C(=O)NCCCCC(=O)NCCCCC(NC(=O)[C@@H]2CCCN2C(=O)[C@H](CCC(N)=O)NC(=O)C2COCCC(NC(=O)[C@H](C)NC(=O)[C@H](Cc3ccc(O)cc3)NC(=O)[C@H](CC(C)C)NC(C)=O)C(=O)N[C@@H](Cc3c[nH]cn3)C(=O)N[C@@H](CCSC)C(=O)NCC(=O)N3CCC[C@H]3C(=O)N[C@@H]([C@@H](C)CC)C(=O)N[C@@H]([C@@H](C)O)C(=O)N[C@@H](Cc3cccc4ccccc34)C(=O)N[C@@H](C(C)C)C(=O)N2)C(N)=O)NC(=O)[C@H](C(C)C)NC(=O)[C@H](Cc2cccc3ccccc23)NC(=O)[C@H]([C@@H](C)O)NC1=O (some centres unmarked) [AC-0005-007]
pIC50 (Example 4, first table): 5.31 | pKi (Example 4, first table): 5.63

Compound: CSCC[C@H]1COC2CCCC2C(=O)N[C@@H](Cc2c[nH]c3ccccc23)C(=O)N[C@@H](C(C)C)C(=O)NC(C(=O)N[C@@H](CCCCNC(=N)N)C(=O)N2CCC[C@H]2C(=O)NCCCCC(=O)NCCCCC(NC(=O)[C@@H]2CCCN2C(=O)[C@H](CCCCNC(=N)N)NC(=O)C2COCCC(NC(=O)[C@H](CC(C)C)NC(=O)[C@H](Cc3ccc(O)cc3)NC(=O)[C@H](CC(N)=O)NC(C)=O)C(=O)N[C@@H](CCCNC(=N)N)C(=O)N[C@@H](CCSC)COC3CCCC3C(=O)N[C@@H](Cc3c[nH]c4ccccc34)C(=O)N[C@@H](C(C)C)C(=O)N2)C(N)=O)COCCC(NC(=O)[C@H](CC(C)C)NC(=O)[C@H](Cc2ccc(O)cc2)NC(=O)[C@H](CC(N)=O)NC(C)=O)C(=O)N[C@@H](CCCNC(=N)N)C(=O)N1 (some centres unmarked) [AC-0005-057]
NH (Hill coefficient) (Example 3, slope of competitive binding curve): 1.84 | Ki (AC-0005-002)/Ki (Example 4, fifth table): 379 | Ki/Ki(EPO) (Example 4, fifth table, Ki relative to that of EPO): 128

Compound: CC[C@H](C)[C@@H]1NC(=O)[C@@H]2CCCN2C(=O)CNC(=O)[C@H](CCSC)NC(=O)[C@H](CCCNC(=N)N)NC(=O)C(NC(=O)[C@H](C)NC(=O)[C@H](Cc2ccc(O)cc2)NC(=O)[C@H](CC(C)C)NC(C)=O)CCOCC(C(=O)NCCCCC(=O)NCCCCC(NC(=O)C2COCCC(NC(=O)[C@H](C)NC(=O)[C@H](Cc3ccc(O)cc3)NC(=O)[C@H](CC(C)C)NC(C)=O)C(=O)N[C@@H](CCCNC(=N)N)C(=O)N[C@@H](CCSC)C(=O)NCC(=O)N3CCC[C@H]3C(=O)N[C@@H]([C@@H](C)CC)C(=O)N[C@@H]([C@@H](C)O)C(=O)N[C@@H](Cc3cccc4ccccc34)C(=O)N[C@@H](C(C)C)C(=O)N2)C(N)=O)NC(=O)[C@H](C(C)C)NC(=O)[C@H](Cc2cccc3ccccc23)NC(=O)[C@H]([C@@H](C)O)NC1=O (some centres unmarked) [AC-0005-008]
pIC50 (Example 4, first table): < 5.00

Compound: CSCC[C@@H]1NC(=O)[C@H](CCCNC(=N)N)NC(=O)C(NC(=O)[C@H](CC(C)C)NC(=O)[C@H](Cc2ccc(O)cc2)NC(=O)[C@H](CC(N)=O)NC(C)=O)CCOCC(C(=O)N[C@@H](CCCCN)C(=O)N2CCC[C@H]2C(=O)NCCCCC(=O)NCCCCC(NC(=O)[C@@H]2CCCN2C(=O)[C@H](CCCCN)NC(=O)C2COCCC(NC(=O)[C@H](CC(C)C)NC(=O)[C@H](Cc3ccc(O)cc3)NC(=O)[C@H](CC(N)=O)NC(C)=O)C(=O)N[C@@H](CCCNC(=N)N)C(=O)N[C@@H](CCSC)C(=O)NCC(=O)N[C@@H](Cc3c[nH]c4ccccc34)C(=O)N[C@@H](C(C)C)C(=O)N2)C(N)=O)NC(=O)[C@H](C(C)C)NC(=O)[C@H](Cc2c[nH]c3ccccc23)NC(=O)CNC1=O (some centres unmarked) [AC-0005-018]
pKi [1]: 7.66 | pIC50 (Example 4, fourth table): 7.15 | pKi (Example 4, fourth table): 7.48 | pIC50 (Example 4, second table): 7.33

Compound: CC[C@H](C)[C@@H]1NC(=O)[C@@H]2CCCN2C(=O)CNC(=O)[C@H](CCSC)NC(=O)[C@H](Cc2c[nH]cn2)NC(=O)[C@@H](NC(=O)[C@H](C)NC(=O)[C@H](Cc2ccc(O)cc2)NC(=O)[C@H](CC(C)C)NC(C)=O)CSSC[C@@H](C(=O)N[C@@H](CCC(N)=O)C(=O)NCCCCC(=O)NCCCCC(NC(=O)[C@H](CCC(N)=O)NC(=O)[C@@H]2CSSC[C@H](NC(=O)[C@H](C)NC(=O)[C@H](Cc3ccc(O)cc3)NC(=O)[C@H](CC(C)C)NC(C)=O)C(=O)N[C@@H](Cc3c[nH]cn3)C(=O)N[C@@H](CCSC)C(=O)NCC(=O)N3CCC[C@H]3C(=O)N[C@@H]([C@@H](C)CC)C(=O)N[C@@H]([C@@H](C)O)C(=O)N[C@@H](Cc3cccc4ccccc34)C(=O)N[C@@H](C(C)C)C(=O)N2)C(N)=O)NC(=O)[C@H](C(C)C)NC(=O)[C@H](Cc2cccc3ccccc23)NC(=O)[C@H]([C@@H](C)O)NC1=O (some centres unmarked) [AC-0005-005] (I: Ac-LYACHMGPIT[1Nal]VCQ[ξK]-NH2 / II: Ac-LYACHMGPIT[1Nal]VCQ[Ava]; disulfide I:4-I:13, II:4-II:13; amide I:15-II:C)
pIC50 (Example 4, first table): < 5.00

Next, values leading:

pKi [1]: 8.23 | pKi [2]: 8.37 | pIC50 (Example 3): 7.87 | pKi (Example 3, Cheng-Prusoff): 8.19 | pIC50 (Example 4, fifth table): 7.91 | pIC50 (Example 4, fourth table): 7.70 | pIC50 (Example 4, sixth table): 8.05 | pKi (Example 4, sixth table): 8.37
Compound: CSCC[C@@H]1NC(=O)[C@H](CCCNC(=N)N)NC(=O)C(NC(=O)[C@H](CC(C)C)NC(=O)[C@H](Cc2ccc(O)cc2)NC(=O)[C@H](CC(N)=O)NC(C)=O)CCOCC(C(=O)N[C@@H](CCCCN)C(=O)N2CCC[C@H]2C(=O)NCCCCC(=O)NCCCCC(NC(=O)[C@@H]2CCCN2C(=O)[C@H](CCCCN)NC(=O)C2COCCC(NC(=O)[C@H](CC(C)C)NC(=O)[C@H](Cc3ccc(O)cc3)NC(=O)[C@H](CC(N)=O)NC(C)=O)C(=O)N[C@@H](CCCNC(=N)N)C(=O)N[C@@H](CCSC)C(=O)N3CCC[C@H]3C(=O)N[C@@H](Cc3c[nH]c4ccccc34)C(=O)N[C@@H](C(C)C)C(=O)N2)C(N)=O)NC(=O)[C@H](C(C)C)NC(=O)[C@H](Cc2c[nH]c3ccccc23)NC(=O)[C@@H]2CCCN2C1=O (some centres unmarked) [AC-0005-026]

pKi [1]: 8.32 | pKi [2]: 8.22 | pIC50 (Example 3): 7.96 | pKi (Example 3, Cheng-Prusoff): 8.28 | pIC50 (Example 4, fifth table): 7.99 | pIC50 (Example 4, sixth table): 7.90 | pKi (Example 4, sixth table): 8.22
Compound: CSCC[C@@H]1NC(=O)[C@H](CCCNC(=N)N)NC(=O)C(NC(=O)[C@H](CC(C)C)NC(=O)[C@H](Cc2ccc(O)cc2)NC(=O)[C@H](CC(N)=O)NC(C)=O)CCOCC(C(=O)N[C@@H](CCCCNC(=N)N)C(=O)N2CCC[C@H]2C(=O)NCCCCC(=O)NCCCCC(NC(=O)[C@@H]2CCCN2C(=O)[C@H](CCCCNC(=N)N)NC(=O)C2COCCC(NC(=O)[C@H](CC(C)C)NC(=O)[C@H](Cc3ccc(O)cc3)NC(=O)[C@H](CC(N)=O)NC(C)=O)C(=O)N[C@@H](CCCNC(=N)N)C(=O)N[C@@H](CCSC)C(=O)N3CCC[C@H]3C(=O)N[C@@H](Cc3ccc4ccccc4c3)C(=O)N[C@@H](C(C)C)C(=O)N2)C(N)=O)NC(=O)[C@H](C(C)C)NC(=O)[C@H](Cc2ccc3ccccc3c2)NC(=O)[C@@H]2CCCN2C1=O (some centres unmarked) [AC-0005-055]

pKi [2]: 9.00 | pIC50 (Example 4, sixth table): 8.66
Compound: CSCC[C@@H]1NC(=O)[C@H](CCCNC(=N)N)NC(=O)C(NC(=O)[C@H](CC(C)C)NC(=O)[C@H](Cc2ccc(O)cc2)NC(=O)[C@H](CC(N)=O)NC(C)=O)CCOCC(C(=O)N[C@@H](CCCCNC(=N)N)C(=O)N2CCC[C@H]2C(=O)NC(CCCCNC(=O)CCCC(NC(=O)[C@@H]2CCCN2C(=O)[C@H](CCCCNC(=N)N)NC(=O)C2COCCC(NC(=O)[C@H](CC(C)C)NC(=O)[C@H](Cc3ccc(O)cc3)NC(=O)[C@H](CC(N)=O)NC(C)=O)C(=O)N[C@@H](CCCNC(=N)N)C(=O)N[C@@H](CCSC)C(=O)N3CCC[C@H]3C(=O)N[C@@H](Cc3ccc4ccccc4c3)C(=O)N[C@@H](C(C)C)C(=O)N2)C(=O)NCCC(=O)N[C@@H](CCCNC(=N)N)C(N)=O)C(=O)NCCC(=O)N[C@@H](CCCNC(=N)N)C(N)=O)NC(=O)[C@H](C(C)C)NC(=O)[C@H](Cc2ccc3ccccc3c2)NC(=O)[C@@H]2CCCN2C1=O (some centres unmarked) [AC-0005-063]

pKi [1]: 7.94 | pIC50 (Example 3): 7.61 | pKi (Example 3, Cheng-Prusoff): 7.94 | pIC50 (Example 4, fifth table): 7.62
Compound: CSCC[C@@H]1NC(=O)[C@H](CCCNC(=N)N)NC(=O)C(NC(=O)[C@H](CC(C)C)NC(=O)[C@H](Cc2ccc(O)cc2)NC(C)=O)CCOCC(C(=O)N[C@@H](CCCCNC(=N)N)C(=O)N2CCC[C@H]2C(=O)NCCCCC(=O)NCCCCC(NC(=O)[C@@H]2CCCN2C(=O)[C@H](CCCCNC(=N)N)NC(=O)C2COCCC(NC(=O)[C@H](CC(C)C)NC(=O)[C@H](Cc3ccc(O)cc3)NC(C)=O)C(=O)N[C@@H](CCCNC(=N)N)C(=O)N[C@@H](CCSC)C(=O)N3CCC[C@H]3C(=O)N[C@@H](Cc3c[nH]c4ccccc34)C(=O)N[C@@H](C(C)C)C(=O)N2)C(N)=O)NC(=O)[C@H](C(C)C)NC(=O)[C@H](Cc2c[nH]c3ccccc23)NC(=O)[C@@H]2CCCN2C1=O (some centres unmarked) [AC-0005-052]
